Structures can show the parent of a compound that is named as a salt. Where two headings read alike, the source gives them in different places.
How the values were obtained:
ETB [1] = target: T1, ETB (Homo sapiens, UniProt P24530); settings: read-out: Binding K1 (nM) to ETB; cited from earlier work
T1 sequence (P24530 27-442): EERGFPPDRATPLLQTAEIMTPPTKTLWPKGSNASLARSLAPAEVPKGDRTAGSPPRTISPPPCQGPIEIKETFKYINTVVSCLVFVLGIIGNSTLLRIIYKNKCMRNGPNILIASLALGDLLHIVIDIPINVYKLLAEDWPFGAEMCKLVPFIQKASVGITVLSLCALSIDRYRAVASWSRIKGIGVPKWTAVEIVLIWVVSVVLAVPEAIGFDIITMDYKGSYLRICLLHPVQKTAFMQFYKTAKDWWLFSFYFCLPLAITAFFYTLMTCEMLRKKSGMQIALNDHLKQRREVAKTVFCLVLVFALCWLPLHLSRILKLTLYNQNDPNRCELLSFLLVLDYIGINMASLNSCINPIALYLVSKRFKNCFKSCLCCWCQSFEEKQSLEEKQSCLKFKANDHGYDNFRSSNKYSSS

ETA [2] = target: T2, ETA (Homo sapiens, UniProt P25101); settings: cited from earlier work; for Selectivity: ETA versus ETB, Table 2
T2 sequence (P25101 21-427): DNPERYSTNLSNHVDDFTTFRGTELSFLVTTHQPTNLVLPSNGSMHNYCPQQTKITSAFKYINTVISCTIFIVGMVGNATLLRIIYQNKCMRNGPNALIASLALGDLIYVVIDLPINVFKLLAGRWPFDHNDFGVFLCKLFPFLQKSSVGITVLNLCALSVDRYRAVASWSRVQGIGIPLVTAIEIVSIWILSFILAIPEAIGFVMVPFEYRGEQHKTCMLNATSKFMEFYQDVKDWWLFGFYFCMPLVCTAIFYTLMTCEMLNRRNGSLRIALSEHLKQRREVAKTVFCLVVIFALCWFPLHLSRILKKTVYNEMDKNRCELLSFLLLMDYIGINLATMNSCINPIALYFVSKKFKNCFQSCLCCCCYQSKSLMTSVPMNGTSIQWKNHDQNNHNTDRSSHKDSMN

ETA [3] = target: T3, ETA (Sus scrofa, UniProt Q29010); settings: read-out: IC50, inhibition of 125I-labeled endothelin-1 binding, cited from earlier work
T3 construct: from tissue; host or cells: aortic smooth muscle, ventricle membranes, cultured aortic smooth muscle cells
T3 sequence (Q29010 21-427): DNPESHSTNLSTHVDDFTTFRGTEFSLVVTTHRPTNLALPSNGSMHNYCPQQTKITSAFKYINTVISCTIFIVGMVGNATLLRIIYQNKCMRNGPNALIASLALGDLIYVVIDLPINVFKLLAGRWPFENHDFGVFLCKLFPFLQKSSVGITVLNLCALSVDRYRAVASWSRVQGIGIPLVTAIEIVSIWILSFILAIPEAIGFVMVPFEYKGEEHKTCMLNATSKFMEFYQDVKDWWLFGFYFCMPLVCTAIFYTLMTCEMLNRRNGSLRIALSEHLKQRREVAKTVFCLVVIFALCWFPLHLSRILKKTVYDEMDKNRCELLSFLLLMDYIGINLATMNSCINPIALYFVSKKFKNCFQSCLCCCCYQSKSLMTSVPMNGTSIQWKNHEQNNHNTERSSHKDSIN

ETB [4] = target: T1, ETB; settings: concentrations up to 100 μM; cited from earlier work
cytochrome P450 enzymes = settings: in vivo; cited from earlier work
[5] = in vivo; cited from earlier work
[6] = Pharmacokinetic drug interaction study, sitaxsentan and sildenafil; assay type: in vivo, human; settings: for Effect of sildenafil administration on sitaxsentan levels / pharmacokinetics: single 100 mg sildenafil on day 7 of 100 mg sitaxsentan daily; for Cmax: healthy subjects; for Cmax / AUC0-t / AUC∞ / CL/F / t½ / λz / AUC(0-inf) / Vd/F / half-life: mean ± SD; for Tmax: median; for Vd/F: read-out: Vz/F; for half-life: read-out: t½ (converted)
Method: A pharmacokinetic drug interaction study was performed using 24 individuals. In the study, a group of 24 normal, healthy volunteers participated in two treatment periods. […] During the other treatment period, the subjects received placebo for seven days and 100 mg of VIAGRA on the seventh day. Twelve subjects were randomly assigned to each treatment period. When the subjects finished one treatment period, they were switched to the other treatment period.
Samples were drawn (in duplicate) once on days 1, 3, 5 and 6; 15 times on day 7 and once again on day 8 for each treatment period. The samples were stored at a nominal temperature of −20° C. for a duration not exceeding 38 days. All samples were analyzed with a set of calibration standards and low, medium and high concentration Quality Control samples.

bile salt export pump = bile salt export pump (Homo sapiens, UniProt O95342); settings: cited from earlier work
Chain of bile salt export pump (O95342 whole entry): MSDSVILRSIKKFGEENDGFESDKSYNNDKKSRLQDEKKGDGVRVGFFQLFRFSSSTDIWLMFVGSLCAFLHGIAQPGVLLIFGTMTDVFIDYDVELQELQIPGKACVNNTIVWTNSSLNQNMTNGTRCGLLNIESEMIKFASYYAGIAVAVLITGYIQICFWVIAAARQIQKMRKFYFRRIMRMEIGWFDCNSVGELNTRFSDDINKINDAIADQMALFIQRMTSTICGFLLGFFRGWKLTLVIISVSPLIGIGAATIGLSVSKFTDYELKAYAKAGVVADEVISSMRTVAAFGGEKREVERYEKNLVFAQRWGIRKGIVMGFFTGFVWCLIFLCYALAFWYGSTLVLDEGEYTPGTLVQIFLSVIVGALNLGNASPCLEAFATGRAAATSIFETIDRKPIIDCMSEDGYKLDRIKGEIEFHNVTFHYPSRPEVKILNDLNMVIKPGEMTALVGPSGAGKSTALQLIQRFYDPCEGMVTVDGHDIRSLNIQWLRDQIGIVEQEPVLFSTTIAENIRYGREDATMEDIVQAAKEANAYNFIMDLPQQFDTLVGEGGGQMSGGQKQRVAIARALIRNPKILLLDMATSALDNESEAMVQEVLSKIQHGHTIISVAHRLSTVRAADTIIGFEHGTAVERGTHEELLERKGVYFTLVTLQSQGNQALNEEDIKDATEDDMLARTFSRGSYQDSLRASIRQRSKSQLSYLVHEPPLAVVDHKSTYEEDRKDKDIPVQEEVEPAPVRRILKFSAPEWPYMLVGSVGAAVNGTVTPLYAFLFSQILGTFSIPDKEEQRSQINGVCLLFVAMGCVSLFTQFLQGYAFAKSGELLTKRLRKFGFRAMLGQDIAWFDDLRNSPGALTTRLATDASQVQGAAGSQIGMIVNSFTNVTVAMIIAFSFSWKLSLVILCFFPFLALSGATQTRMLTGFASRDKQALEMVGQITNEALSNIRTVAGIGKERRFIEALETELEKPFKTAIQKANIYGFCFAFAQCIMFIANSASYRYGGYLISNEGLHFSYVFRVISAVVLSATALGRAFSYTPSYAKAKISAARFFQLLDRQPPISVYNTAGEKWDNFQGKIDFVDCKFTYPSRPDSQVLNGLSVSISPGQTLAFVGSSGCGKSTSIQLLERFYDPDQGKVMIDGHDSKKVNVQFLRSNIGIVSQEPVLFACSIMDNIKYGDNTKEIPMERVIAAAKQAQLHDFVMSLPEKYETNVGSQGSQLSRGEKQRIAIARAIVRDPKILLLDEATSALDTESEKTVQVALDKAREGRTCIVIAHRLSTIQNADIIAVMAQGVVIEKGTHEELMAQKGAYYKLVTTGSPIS

[7] = in vivo; cited from earlier work; remark: listed apart in the source
ETA [8] = target: T2, ETA; settings: cited from earlier work
[9] = in vivo; cited from earlier work; remark: listed apart in the source
cytochrome P450 3A4 = target: T4, cytochrome P450 3A4 (Homo sapiens, UniProt P08684); test: Cytochrome P450 3A4 inhibition in cultured hepatocytes; assay type: in vitro ADME
T4 construct: endogenous in cells; host or cells: cultured hepatocytes
T4 sequence (P08684 whole entry): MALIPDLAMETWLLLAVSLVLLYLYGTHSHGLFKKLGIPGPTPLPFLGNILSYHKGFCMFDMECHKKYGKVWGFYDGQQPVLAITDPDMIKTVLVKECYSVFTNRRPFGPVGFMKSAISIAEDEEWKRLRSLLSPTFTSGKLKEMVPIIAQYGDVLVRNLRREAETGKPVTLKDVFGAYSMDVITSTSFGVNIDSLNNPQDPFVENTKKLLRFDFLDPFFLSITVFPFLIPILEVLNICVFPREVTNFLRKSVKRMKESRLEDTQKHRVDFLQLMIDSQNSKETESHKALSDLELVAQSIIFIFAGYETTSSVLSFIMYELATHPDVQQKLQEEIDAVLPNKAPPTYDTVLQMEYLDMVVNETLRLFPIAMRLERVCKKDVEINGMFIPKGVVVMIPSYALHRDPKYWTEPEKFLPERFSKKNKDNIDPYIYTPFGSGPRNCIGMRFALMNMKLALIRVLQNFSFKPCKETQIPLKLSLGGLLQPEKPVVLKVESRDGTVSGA

[10] = read-out: Binding K1 (nM) to ETA
[11] = single 100 mg oral sildenafil after 100 mg sitaxsentan daily for seven days
[12] = single 100 mg oral sildenafil after placebo daily for seven days
[13] = sitaxsentan versus placebo pretreatment, natural log-transformed data
[14] = human, plasma, po, 100 mg, single 100 mg oral sildenafil after 100 mg sitaxsentan daily for seven days
[15] = human, plasma, po, 100 mg, single 100 mg oral sildenafil after placebo daily for seven days

## FR-139317
ETB [1]
  Ki: 7300 nM

## Cc1noc(NS(=O)(=O)c2cccc3c(N(C)C)cccc23)c1C [BMS-182874]
ETB [1]
  Ki: > 50000 nM

## CCCOc1ccc2c(c1)[C@@H](c1ccc(OC)cc1OCC(=O)O)[C@H](C(=O)O)[C@H]2c1ccc2c(c1)OCO2 [SB-209670]
ETA [2]
  Selectivity: 90

## COc1nc(C)cnc1NS(=O)(=O)c1cccnc1-c1ccc(CC(C)(C)C(=O)O)cc1 [ZD-1811]
ETA [2]
  Selectivity: 1500
ETA [2]; estimated from the IC∞ value, read-out: Binding K1 (nM) to ETA, K1 estimated from the IC∞ value
  Ki: 1.3 nM
ETB [1]
  Ki: > 2000 nM

## cyclo(D-Glu-L-Ala-allo-D-Ile-L-Leu-D-Trp) [BE-18257B]
ETA [3]; aortic smooth muscle
  IC50: 1400 nM
ETA [3]; cultured aortic smooth muscle cells
  IC50: 500 nM
ETA [3]; ventricle membranes
  IC50: 800 nM
ETB [4]
  Inhibition of binding to receptors in tissues in which ETB predominates: fails to inhibit binding

## COc1cc(OC)nc(O[C@H](C(=O)O)C(OC)(c2ccccc2)c2ccccc2)n1 [LU-135252]
ETA [2]
  Selectivity: 130
ETA [2]; [10]
  Ki: 1.4 nM
ETB [1]
  Ki: 184 nM

## CCCCc1ccc2c(n1)[C@@H](c1ccc(OC)cc1C[C@H](C)C(=O)O)[C@H](C(=O)O)[C@H]2c1ccc2c(c1)OCO2 [J-104132]
ETA [2]
  Selectivity: 2.9
ETA [2]; [10]
  Ki: 0.034 nM
ETB [1]
  Ki: 0.1 nM

## Cc1cc2c(cc1CC(=O)c1sccc1S(=O)(=O)Nc1onc(C)c1Cl)OCO2 [Sitaxsentan]
Cytochrome P450 enzymes
  Induction of cytochrome P450 enzymes: No induction
ETA [2]
  Selectivity: 10,000
[5]
  Metabolism: Through 3A4 and 2C9
  t1/2: 10 h
[6]; listed as sitaxsentan
  Effect of sildenafil administration on sitaxsentan levels / pharmacokinetics: did not alter sitaxsentan levels
Bile salt export pump
  Effect on bile salt: Does not accumulate
[7]
  Effect on bilirubin: No effect.
ETB [1]
  Ki: > 4300 nM
ETA [8]; Table 4
  Selectivity for ETA:ETB: 6500
ETA [8]; based upon in vitro receptor affinity ratios
  ETA:ETB selectivity ratio: 6500
ETA [8]; read-out: Intrinsic potency to ETA (Ki)
  Ki: 0.45 nM

## CCCc1nn(C)c2c(=O)[nH]c(-c3cc(S(=O)(=O)N4CCNCC4)ccc3OCC)nc12 [N-Desmethyl Sildenafil]
[6]; in the presence of sitaxsentan
  Effect of sitaxsentan on levels of the active metabolite: No effects
[6]; [11]
  Cmax: 104 ± 40.8 ng/mL
  AUC0-t: 389 ± 105 ng·h/mL
  AUC∞: 425 ± 115 ng·h/mL
  CL/F: 529 ± 164 mL/min
  t½: 5.14 ± 2.13 h
  λz: 0.1544 ± 0.0552 h⁻¹
  Tmax: 1.00 h
[6]; [12]
  Cmax: 109 ± 53.1 ng/mL
  AUC0-t: 372 ± 107 ng·h/mL
  AUC∞: 440 ± 112 ng·h/mL
  CL/F: 524 ± 234 mL/min
  t½: 05.1 ± 1.63 h
  λz: 0.1506 ± 0.0569 h⁻¹
  Tmax: 1.00 h
[6]; [13]
  AUC0-t, geometric mean ratio (%) estimate: 112.43%
  AUC∞, geometric mean ratio (%) estimate: 105.78%
  CL/F, geometric mean ratio (%) estimate: 88.95%
  Cmax, geometric mean ratio (%) estimate: 100.70%
  Vz/F, geometric mean ratio (%) estimate: 94.89%

## CCCOc1ccc2c(c1)[C@@H](c1ccc(OC)cc1OCCO)[C@H](C(=O)O)[C@H]2c1ccc2c(c1)OCO2 [SB-217242]
ETA [2]
  Selectivity: 101

## CCCc1nn(C)c2c(=O)[nH]c(-c3cc(S(=O)(=O)N4CCN(C)CC4)ccc3OCC)nc12 [Sildenafil, 1-[[3-(6,7-dihydro-1-methyl-7-oxo-3-propyl-1H-pyrazolo[4,3-d]pyrimidin-5-yl)-4-ethoxyphenyl]sulfonyl]-4-methylpiperazine citrate]
[6]; human, plasma, po, 100 mg, single 100 mg oral sildenafil after 100 mg sitaxsentan daily for seven days, read-out: Cmax
  Cmax: 440 ± 232 ng/mL
[6]; [14]
  AUC(0-inf): 1650 ng·h/mL
  Vd/F: 34.8 ± 11.5 L
  half-life: 169 ± 27 min
[6]; human, plasma, po, 100 mg, single 100 mg oral sildenafil after 100 mg sitaxsentan daily for seven days, read-out: AUC0-t
  AUC0-t: 1580 ng·h/mL
[6]; human, plasma, po, 100 mg, single 100 mg oral sildenafil after 100 mg sitaxsentan daily for seven days, read-out: Tmax
  Tmax: 1.25 h
[6]; human, plasma, po, 100 mg, single 100 mg oral sildenafil after placebo daily for seven days, read-out: Cmax
  Cmax: 377 ± 208 ng/mL
[6]; [15]
  AUC(0-inf): 1300 ng·h/mL
  Vd/F: 43.6 ± 18.9 L
  half-life: 166 ± 27 min
[6]; human, plasma, po, 100 mg, single 100 mg oral sildenafil after placebo daily for seven days, read-out: AUC0-t
  AUC0-t: 1220 ng·h/mL
[6]; human, plasma, po, 100 mg, single 100 mg oral sildenafil after placebo daily for seven days, read-out: Tmax
  Tmax: 1 h
[6]; in the presence of sitaxsentan
  Increase of AUC∞ (area under the plasma concentration/time curve): 28%
  Increase of Cmax (maximum concentration): 18%
[6]; [11]
  CL/F: 147 ± 56.4 mL/min
  λz: 0.2514 ± 0.0364 h⁻¹
[6]; [12]
  CL/F: 184 ± 69.0 mL/min
  λz: 0.2584 ± 0.0444 h⁻¹

## COc1ccccc1Oc1c(NS(=O)(=O)c2ccc(C)cn2)nc(-c2ccnc(-c3nnn[nH]3)c2)nc1OCCO [Ro-61.1790]
ETA [2]
  Selectivity: 1000
ETA [2]; [10]
  Ki: 0.13 nM
ETB [1]
  Ki: > 130 nM

## COc1ccccc1Oc1c(NS(=O)(=O)c2ccc(C(C)(C)C)cc2)nc(-c2ncccn2)nc1OCCO [Bosentan]
Cytochrome P450 enzymes
  Induction of cytochrome P450 enzymes: Causes inhibition,
[5]
  Metabolism: Through 3A4 and 2C9
  Route of elimination: Hepatic
  t1/2: 5 h
Bile salt export pump
  Effect on bile salt: Inhibits bile salt

## Cc1ccc(-c2c(NS(=O)(=O)c3ccc(C(C)(C)CO)cc3)ncnc2OCCOc2ncc(Br)cn2)cc1 [T-0201]
ETA [2]; [10]
  Ki: 0.015 nM

## Cc1cc2c(cc1CC(=O)c1sccc1S(=O)(=O)Nc1onc(C)c1Cl)OCO2 [THELIN]
[6]
  Effect of sildenafil administration on sitaxsentan levels / pharmacokinetics: does not appear to impact
[9]
  Side effects: liver dysfunction (increased ALT and AST), headache, edema, constipation, nasal congestion and flushing
ETA [8]
  Selectivity as an antagonist for ETA compared to ETB: approximately 6,500 fold
Cytochrome P450 3A4
  Cytochrome P450 3A4 inhibition: weak

## CC1(C)CC[C@]2(C(=O)[O-])CC[C@]3(COC(=O)/C=C/c4cc([O-])ccc4NC(=O)/C=C/C(=O)O)C(=CC[C@@H]4[C@@]5(C)CCC(=O)C(C)(C)[C@@H]5CC[C@]43C)[C@@H]2C1.[Na+].[Na+] [S-0139]
ETA [2]
  Selectivity: 1000
ETA [2]; [10]
  Ki: 1 nM
ETB [1]
  Ki: 1000 nM

From US20060205733A1, “Endothelin a receptor antagonists in combination with phosphodiesterase 5 inhibitors and uses thereof” (Encysive Pharmaceuticals, priority 2004, published 2006)
